Test results as given in US11292791B2 (priority 2017, dated 2022).

Biological target: BRD4 (Homo sapiens (Human), UniProt O60885)
Conditions: read-out: BRD4 IC50 (μM gmean)

SMILES | IC50 [µM]
COC(=O)N1c2ccc3c(nc(C(C)Cn4cc(Cl)cn4)n3C3CCC(C(=O)O)CC3)c2CC[C@@H]1C (some centres unmarked) [Example 551] | 1 to 1000
COC(=O)N1c2ccc3c(nc(CCn4ccccc4=O)n3CCN3CCOCC3)c2CC[C@@H]1C [Example 272] | 1 to 1000
COC(=O)N1c2ccc3c(nc(N(C)c4ccccc4)n3[C@@H]3CCC[C@@H](C(=O)O)C3)c2CC[C@@H]1C [Example 787] | 1 to 1000
COC(=O)N1c2ccc3c(nc(CC(C(=O)O)c4ccccc4)n3-c3cccc(C#N)c3)c2CC[C@@H]1C (some centres unmarked) [Example 698] | 1 to 1000
COC(=O)N1c2ccc3c(nc(Cc4ccc(F)cc4)n3[C@@H]3CCC[C@@H](C(=O)O)C3)c2CC[C@@H]1C [Example 675] | 1 to 1000
COC(=O)N1c2ccc3c(nc(CCn4ccccc4=O)n3CC(=O)NCC3(C)COC3)c2CC[C@@H]1C [Example 392] | 1 to 1000
COC(=O)N1c2ccc3c(nc(Cc4ccccc4)n3CC3CCNCC3)c2CC[C@@H]1C [Example 93] | 1 to 1000
COC(=O)N1c2ccc3c(nc([C@H](CO)c4ccccc4)n3C3CCOCC3)c2CC[C@@H]1C [Example 46, methyl (7S)-2-[(1R)-2-hydroxy-1-phenylethyl]-7-methyl-3-(oxan-4-yl)-3H,6H,7H,8H,9H-imidazo[4,5-f]quinoline-6-carboxylate] | 1 to 1000
C/C=C(/Oc1ccccc1)c1nc2c3c(ccc2n1[C@H]1CC[C@H](C(=O)O)CC1)N(C(=O)OC)[C@@H](C)CC3 [Example 821] | 1 to 1000
COC(=O)N1c2ccc3c(nc(CCn4cccn4)n3CC(=O)N(C)CC(=O)N(C)C)c2CC[C@@H]1C [Example 351] | 1 to 1000
COC(=O)N1c2ccc3c(nc(CC(=O)N4CCCC4)n3[C@@H]3CCC[C@@H](C(=O)O)C3)c2CC[C@@H]1C [Example 798] | 1 to 1000
COC(=O)N1c2ccc3c(nc(Nc4ccnc(C)c4)n3[C@H]3CC[C@H](C(=O)O)CC3)c2CC[C@@H]1C [Example 943] | 1 to 1000
COC(=O)N1c2ccc3c(nc(C(C)Cc4ccc(F)c(F)c4)n3C3CCCC(C(=O)O)C3)c2CC[C@@H]1C (some centres unmarked) [Example 405] | 1 to 1000
COC(=O)N1c2ccc3c(nc([C@@H](C)c4ccccc4)n3[C@H]3CC[C@H](C(=O)O)CC3)c2CC[C@@H]1C [Example 57, trans-4-[(7S)-6-(methoxycarbonyl)-7-methyl-2-[(1S)-1-phenylethyl]-3H,6H,7H,8H,9H-imidazo[4,5-f]quinolin-3-yl]cyclohexane-1-carboxylic Acid] | 1 to 1000
COC(=O)N1c2ccc3c(nc(C(O)C4CCCCC4)n3C3CCCC(C(=O)O)C3)c2CC[C@@H]1C (some centres unmarked) [Example 625] | 1 to 1000
COC(=O)N1c2ccc3c(nc(CCn4cccn4)n3CCNC3COC3)c2CC[C@@H]1C [Example 305] | 1 to 1000
COC(=O)N1c2ccc3c(nc(Cc4ccccc4)n3[C@H]3CCCS(=O)(=O)C3)c2CC[C@@H]1C [Example 264, methyl (S)-2-benzyl-3-((S)-1,1-dioxidotetrahydro-2H-thiopyran-3-yl)-7-methyl-3,7,8,9-tetrahydro-6H-imidazo[4,5-f]quinoline-6-carboxylate] | 1 to 1000
COC(=O)N1c2ccc3c(nc(Cc4ccccc4)n3-c3ccc(C(=O)O)cc3)c2CC[C@@H]1C [Example 43] | 1 to 1000
COC(=O)N1c2ccc3c(nc(C(C)Cn4cccn4)n3C3CCC(C(=O)O)CC3)c2CC[C@@H]1C (some centres unmarked) [Example 627] | 1 to 1000
COC(=O)N1c2ccc3c(nc(C(c4ccc(OC)c(F)c4)C(C)C)n3C3CCC(C(=O)O)CC3)c2CC[C@@H]1C (some centres unmarked) [Example 673] | 1 to 1000
COC(=O)N1c2ccc3c(nc(COC4CCCC4)n3[C@@H]3CCC[C@@H](C(=O)O)C3)c2CC[C@@H]1C [Example 711] | 1 to 1000
COC(=O)N1c2ccc3c(nc(CC(C(=O)O)c4ccccc4)n3C3CCCC(OC)C3)c2CC[C@@H]1C (some centres unmarked) [Example 404] | 1 to 1000

SMILES | IC50 [µM]
COC(=O)N1c2ccc3c(nc(CCn4ccccc4=O)n3CC(=O)N3CCC(F)(F)C3)c2CC[C@@H]1C [Example 401] | 1 to 1000
COC(=O)N1c2ccc3c(nc(CC(C(=O)O)c4ccccc4)n3-c3cccc(OC)c3)c2CC[C@@H]1C (some centres unmarked) [Example 516] | 1 to 1000
COC(=O)N1c2ccc3c(nc(Cc4cccc(OC5CC5)n4)n3[C@@H]3CCC[C@@H](C(=O)O)C3)c2CC[C@@H]1C [Example 695] | 1 to 1000
COC(=O)N1c2ccc3c(nc(Cc4cccc(C)c4)n3[C@@H]3CCC[C@@H](C(=O)O)C3)c2CC[C@@H]1C [Example 718] | 1 to 1000
COC(=O)N1c2ccc3c(nc(-c4ccccc4)n3CCN3CCOCC3)c2CC[C@@H]1C [Example 250] | 1 to 1000
COC(=O)N1c2ccc3c(nc(CCn4ccccc4=O)n3CC(=O)N3CC[C@@H](NC(C)=O)C3)c2CC[C@@H]1C [Example 397] | 1 to 1000
COC(=O)N1c2ccc3c(nc(CCc4ccccc4)n3C3CCNCC3)c2CC[C@@H]1C [Example 104] | 1 to 1000
COC(=O)N1c2ccc3c(nc(C[C@@H](C(=O)O)c4ccccc4)n3C)c2CC[C@@H]1C [Example 136, (R)-3-((S)-6-(methoxycarbonyl)-3,7-dimethyl-6,7,8,9-tetrahydro-3H-imidazo[4,5-f]quinolin-2-yl)-2-phenylpropanoic Acid] | 1 to 1000
COC(=O)N1c2ccc3c(nc(Cc4ccccc4)n3CC(N)=O)c2CC[C@@H]1C [Example 286, methyl (S)-3-(2-amino-2-oxoethyl)-2-benzyl-7-methyl-3,7,8,9-tetrahydro-6H-imidazo[4,5-f]quinoline-6-carboxylate] | 1 to 1000
COC(=O)N1c2ccc3c(nc(C4(Oc5ccccc5)CC4)n3[C@H]3CC[C@H](C(=O)O)CC3)c2CC[C@@H]1C [Example 574] | 1 to 1000
COC(=O)N1c2ccc3c(nc(CCn4ccccc4=O)n3CC(=O)NCC3CCOCC3)c2CC[C@@H]1C [Example 385] | 1 to 1000
COC(=O)N1c2ccc3c(nc(CC(C(=O)O)c4ccccc4)n3C3CCCC(OC)C3)c2CC[C@@H]1C (some centres unmarked) [Example 757] | 1 to 1000
COC(=O)N1c2ccc3c(nc(CCn4ccccc4=O)n3CC(=O)N3CCC(C#N)CC3)c2CC[C@@H]1C [Example 396] | 1 to 1000
COC(=O)N1c2ccc3c(nc(C(=O)N(C)c4ccccc4)n3[C@@H]3CCC[C@@H](C(=O)O)C3)c2CC[C@@H]1C [Example 934] | 1 to 1000
COC(=O)N1c2ccc3c(nc(Cc4cc(F)ccc4OC)n3[C@H]3CC[C@H](C(=O)O)CC3)c2CC[C@@H]1C [Example 561] | 1 to 1000
COC(=O)N1c2ccc3c(nc(CCn4cccn4)n3CCN(C)CC(C)(C)O)c2CC[C@@H]1C [Example 304] | 1 to 1000
COC(=O)N1c2ccc3c(nc(S(=O)(=O)Cc4ccccc4)n3[C@@H]3CCC[C@@H](C(=O)O)C3)c2CC[C@@H]1C [Example 814] | 1 to 1000
COC(=O)N1c2ccc3c(nc(Cc4ccc(N(C)C)c(F)c4)n3[C@H]3CC[C@H](C(=O)O)CC3)c2CC[C@@H]1C [Example 581] | 1 to 1000
COC(=O)N1c2ccc3c(nc(Cn4ccccc4=O)n3[C@H]3CC[C@H](O)CC3)c2CC[C@@H]1C [Example 71] | 1 to 1000
COC(=O)N1c2ccc3c(nc(CCn4cccn4)n3CC(=O)NCc3ccncn3)c2CC[C@@H]1C [Example 336] | 1 to 1000
COC(=O)N1c2ccc3c(nc(CCn4cccn4)n3CC(=O)N(C)[C@H]3CCOC3)c2CC[C@@H]1C [Example 359] | 1 to 1000
COC(=O)N1c2ccc3c(nc(C(C)Cn4cc(Cl)cn4)n3C3CCS(=O)(=O)C3)c2CC[C@@H]1C (some centres unmarked) [Example 926] | 1 to 1000
